The subject of one data set is A. fumigatus MYA3626. Nature of the data set: Broth microdilution susceptibility testing for molds (CLSI M38-A2). The data set is classed as cell-based. The note with it: Aspergillus fumigatus, MYA3626; read-out: MIC or MEC for A. fumigatus MYA3626. From the text:
(§1) C. neoformans strains H99, DUMC 118.00, and DUMC 158.03 and C. gattii strains R272 and RSA-MW-3515 were obtained from Duke University. C. albicans 90028, A. fumigatus MYA3626, C. neoformans 14116, C. neoformans 76484, and the pathogenic Cryptococcus reference strains panel (ATCC MP-11) were obtained from the American Type Culture Collection (ATCC; Manassas, VA, USA). The ATCC MP-11 panel consists of strains representing eight molecular types and three subtypes of C. neoformans and C. gattii.
(§2) To establish the antimicrobial activity of the APX001A analogs, broth microdilution susceptibility testing was performed according to Clinical and Laboratory Standards Institute (CLSI) guidelines M27-A3 ([47]) for yeasts and M38-A2 for molds ([48]). APX001A and analogs were first diluted in DMSO to obtain intermediate dilutions. These were further diluted in microtiter plates to obtain a final concentration of 2 to 0.002 μg/ml. One microliter of DMSO was added to the no-drug control wells. The solutions were mixed on a plate shaker for 10 min, and the plates were incubated at 35°C for 40 to 48 h (C. albicans, A. fumigatus) and 72 h (C. neoformans). The minimum concentration that led to a 50% reduction in fungal growth compared to that for the control (determined with the aid of a reading mirror) was determined as the MIC for C. albicans and C. neoformans. The minimum concentration that led to the shortening of hyphae compared to the hyphal growth in DMSO control wells was determined as the minimum effective concentration (MEC) for A. fumigatus (as read for the echinocandins). The use of the MIC and MEC endpoints for APX001A (formerly E1210) against yeasts and molds, respectively, has been described previously ([19][–][21]). For the cryptococcal synergy studies, APX001A and APX2020 MIC values were read at 50% inhibition.

In another data set the test system is C. albicans 90028. Nature of the data set: Broth microdilution susceptibility testing (CLSI M27-A3). To be noted: Candida albicans, 90028; read-out: MIC, C. albicans 90028. In kind it is cell-based, Candida albicans.
Text: as §1, §2
In general terms: In broth dilution the organism is exposed to a series of concentrations in liquid medium.

The next data set deals with C. neoformans H99. Nature of the data set: Microtiter checkerboard synergy with FLC. The note with it: in combination with FLC, MIC read at 50% inhibition, synergy FICI < 0.5. In kind it is cell-based, Cryptococcus neoformans. As to the method: An important consideration for developing a new treatment for CM is the potential for inclusion in combination therapy. We evaluated the synergy of APX001A and APX2020 in combination with FLC using standard microtiter dilution techniques ([33]). […] Importantly, no antagonism was observed.
as §2, with “The use of the MIC and MEC endpoints for APX001A (formerly E1210) against yeasts and molds, respectively, has been described previously ([19][–][21]). For the cryptococcal synergy studies, APX001A and APX2020 MIC values were read at 50% inhibition.” left out

Data set [1] relates to FLC-susceptible and FLC-nonsusceptible/resistant strains of C. neoformans and C. gattii. In words: Broth microdilution, summary over the 18-strain Cryptococcus collection. The data set is classed as cell-based, Cryptococcus neoformans and Cryptococcus gattii. To be noted: 18 strains of C. neoformans and C. gattii. As to the method: as §2, with “The minimum concentration that led to the shortening of hyphae compared to the hyphal growth in DMSO control wells was determined as the minimum effective concentration (MEC) for A. fumigatus (as read for the echinocandins).” left out

Data set [2] is described as follows: Single-dose mouse pharmacokinetics of prodrugs with or without ABT. The data set is classed as in vivo. To be noted: for AUC: male, CD-1, mouse, plasma, 26 mg/kg. As to the method:
The area under the curve (AUC) was calculated from time zero to the time of the last measurable concentration. The active metabolite concentrations in plasma (APX001A, APX2039, APX2020, and APX2041) were determined by liquid chromatography-tandem mass spectrometry. PK parameters were determined using Phoenix WinNonlin (v7.0) software and a noncompartmental model.

Data set [3] concerns C. neoformans. In words: Broth microdilution susceptibility testing (CLSI M27-A3). The data set is classed as cell-based, Cryptococcus neoformans. To be noted: for MIC: Cryptococcus neoformans.
Text: as §1, §2

For the next data set, the system named is C. gattii. Described as above. In kind it is cell-based. To be noted: Cryptococcus gattii.
Text: as §1, §2

The test system of data set [4] is C. neoformans. On the set-up: method as in PMID 23740727. The note with it: 46 strains of C. neoformans, global study; cited from earlier work.

The text below walks through data of paper PMC6105804, “In Vitro and In Vivo Evaluation of APX001A/APX001 and Other Gwt1 Inhibitors against Cryptococcus” (Antimicrobial Agents and Chemotherapy, 2018).

Structures are written as SMILES. Values after ≈ are worked out from the molar mass of the structure shown. Like-named read-outs stand apart in the source and are kept apart here.

Usually MIC stands for the lowest concentration found to suppress growth. The term MIC90 denotes the lowest concentration that inhibits either 90% of growth or 90% of the strains tested, depending on the study. For `Nc1ncccc1-c1cc(Cc2ccc(OCc3ccccc3)cc2)no1` [APX2020], the MIC with A. fumigatus MYA3626 was 0.031 µg/mL; with C. albicans 90028 it was 0.016 µg/mL; in data set [1] (read-out: Geometric mean MIC), 0.085 µg/mL; in the data set on C. neoformans [3] (72 h, Table 1, 50% growth inhibition for FLC, caspofungin and APX compounds, 100% for AMB, 72 h, read-out: MIC, C. neoformans H99), 0.031 µg/mL; in the data set with C. neoformans [3] (C. neoformans isolate 14116, read-out: MIC), 0.031 µg/mL; in the data set with C. neoformans [3] (C. neoformans isolate 76484, read-out: MIC), 0.063 µg/mL. Also, the MIC with C. neoformans [3] (C. neoformans isolate DUMC 118.00 (FLC resistant), read-out: MIC) turned out to be 0.063 µg/mL; in the data set with C. neoformans [3] (C. neoformans isolate DUMC 158.03 (FLC resistant), read-out: MIC), 0.25 µg/mL; in the data set with C. neoformans [3] (C. neoformans isolate MYA-4564, read-out: MIC), 0.063 µg/mL; in the data set on C. neoformans [3] (C. neoformans isolate MYA-4565, read-out: MIC) it was 0.25 µg/mL; with C. neoformans [3] (C. neoformans isolate MYA-4566, read-out: MIC) it was 0.125 µg/mL; in the data set on C. neoformans [3] (C. neoformans isolate MYA-4567, read-out: MIC), 0.063 µg/mL. Also, the MIC stood at 0.031 µg/mL in the data set with C. neoformans [3] (Table 2, C. neoformans isolate H99, read-out: MIC); 0.125 µg/mL in the data set with C. gattii (C. gattii isolate MYA-4093, read-out: MIC); 0.25 µg/mL in the data set with C. gattii (C. gattii isolate MYA-4094, read-out: MIC); 0.063 µg/mL with C. gattii (C. gattii isolate MYA-4560 (first listing, r17), read-out: MIC); 0.063 µg/mL in the data set with C. gattii (C. gattii isolate MYA-4560 (second listing, r21), read-out: MIC); 0.125 µg/mL with C. gattii (C. gattii isolate MYA-4561, read-out: MIC). In addition, the MIC in the data set with C. gattii (C. gattii isolate MYA-4562, read-out: MIC) amounted to 0.125 µg/mL; with C. gattii (C. gattii isolate MYA-4563, read-out: MIC), 0.125 µg/mL; with C. gattii (C. gattii isolate MYA-4877, read-out: MIC), 0.063 µg/mL; in the data set with C. gattii (C. gattii isolate RSA-MW-3615 (FLC resistant), read-out: MIC), 0.031 µg/mL; in the data set on C. gattii (Table 1, 50% growth inhibition for FLC, caspofungin and APX compounds, 100% for AMB, read-out: MIC, C. gattii WM276), 0.031 µg/mL. Also, the “fractional inhibitory concentration index (FICI)” value with C. neoformans H99 was 0.37. Also, the MIC90 in data set [1] was 0.25 µg/mL. In addition, the “Ratio of AUC with ABT/AUC without ABT, i.p. dosing” value in data set [2] (26 mg/kg prodrug) was 8.3. Also, in data set [2] (26 mg/kg prodrug), the “Ratio of AUC with ABT/AUC without ABT, p.o. dosing” value is given as 9.3. For the same compound, the AUC came out at 35600 ± 28200 ng·h/mL in data set [2] (intraperitoneal, AUC of analyte after 26 mg/kg prodrug, 100 mg/kg ABT orally 2 h before, read-out: Avg AUC resulting from 26-mg/kg dose, i.p. dosing + ABT); 4310 ± 960 ng·h/mL in data set [2] (ip, AUC of analyte after 26 mg/kg of the corresponding prodrug, male CD-1 mice, no ABT, read-out: Avg AUC resulting from 26-mg/kg dose, i.p. dosing); 41900 ± 6410 ng·h/mL in data set [2] (po, AUC of analyte after 26 mg/kg prodrug, 100 mg/kg ABT orally 2 h before, read-out: Avg AUC resulting from 26-mg/kg dose, p.o. dosing + ABT); 4490 ± 2320 ng·h/mL in data set [2] (po, AUC of analyte in plasma after 26 mg/kg of the corresponding prodrug, male CD-1 mice, no ABT, read-out: Avg AUC resulting from 26-mg/kg dose, p.o. dosing). Moreover, the “fold improved anti-C. neoformans H99 activity vs APX001A” value in the data set on C. neoformans [3] (from MIC values of Table 1) amounted to 8 fold.
For the compound `C[C@@H](c1nc(-c2ccc(C#N)cc2)cs1)[C@](O)(Cn1cncn1)c1cc(F)ccc1F` [isavuconazole], in the data set with C. neoformans [4], the MIC90 was 0.06 µg/mL (≈ 0.137 µM).
